In PubChem BioAssay (NCI):
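Values below derive from 48-hour exposures of cells grown in 96-well plates, with endpoints linearly interpolated between the two concentrations bracketing the appropriate inhibition level. GI50: concentration for 50% inhibition of growth. TGI: concentration producing complete growth inhibition.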

Assays:
Assay in all cases: growth of human tumour cells (NCI), 48 h
T-47D breast = test system: T-47D breast
SNB-19 CNS = test system: SNB-19 CNS
OVCAR-3 ovarian = test system: OVCAR-3 ovarian
NCI-H522 lung = test system: NCI-H522 lung
MALME-3M melanoma = test system: MALME-3M melanoma
NCI-H23 lung = test system: NCI-H23 lung
COLO 205 colon = test system: COLO 205 colon
MCF7 breast = test system: MCF7 breast
UACC-62 melanoma = test system: UACC-62 melanoma
SR leukemia = test system: SR leukemia

Compound | TGI (T-47D breast) [µM] | TGI (SNB-19 CNS) [µM] | TGI (OVCAR-3 ovarian) [µM] | TGI (NCI-H522 lung) [µM] | TGI (MALME-3M melanoma) [µM] | TGI (NCI-H23 lung) [µM] | TGI (COLO 205 colon) [µM] | TGI (MCF7 breast) [µM] | TGI (UACC-62 melanoma) [µM] | TGI (SR leukemia) [µM] | GI50 (T-47D breast) [µM] | GI50 (SNB-19 CNS) [µM] | GI50 (OVCAR-3 ovarian) [µM] | GI50 (NCI-H522 lung) [µM] | GI50 (MALME-3M melanoma) [µM] | GI50 (NCI-H23 lung) [µM] | GI50 (COLO 205 colon) [µM] | GI50 (MCF7 breast) [µM] | GI50 (UACC-62 melanoma) [µM] | GI50 (SR leukemia) [µM]
C[Si](C)(C)C1=C2C(=O)c3ccccc3C(=O)C2=C([Si](C)(C)C)[C@@H]2CCCC[C@H]12 | > 100 | > 100 | > 100 | > 100 | > 100 | > 100 | > 100 | > 100 | > 100 | > 100 |  |  |  |  |  |  |  |  |  | 
CCCCCCc1cc2cc(C(=O)Nc3cccc(C(F)(F)F)c3)c(=N)oc2cc1O | 1.04 | > 44.3 | 10.7 | 2.67 | 6.2 | 1.76 | 21 | 6.47 | 6.02 | 4.37 |  |  |  |  |  |  |  |  |  | 
COc1cc(C2c3cc4c(c(O)c3C(=O)C3CCC(=O)N32)OCO4)cc(OC)c1OC (stereo not given) | > 100 | > 100 | > 100 | 38.9 | > 100 | > 100 | > 100 | > 100 | > 100 | > 100 |  |  |  |  |  |  |  |  |  | 
COC(=O)C(I(OS(=O)(=O)c1ccc(C)cc1)c1ccccc1)=P(c1ccccc1)(c1ccccc1)c1ccccc1 | 48.2 | > 100 | 33.4 | 27.7 | 21.6 | 34.1 | 13.1 | 94.5 | 35.1 | 49.7 |  |  |  |  |  |  |  |  |  | 
COc1ccc2c(c1)CCC1C2CCC2(C)C1CC[C@@]2(O)CNC(=O)/C=C/c1ccc(O)c(O)c1 (stereo not given in full) | > 100 | > 100 | 67.3 | 2.19 | 9.6 | 9.14 | 5.75 | > 100 | 5.63 | 59.7 | 3.15 | 3.31 | 2.56 | 0.503 | 3.56 | 2.96 | 1.81 | 3.66 | 2.24 | 20.1
CCOC(=O)C1C(=O)C=C(c2cc(C)ccc2O)CC1c1cccc(Br)c1 (stereo not given) | 72 | 32.5 | 84.8 | 35.1 | 42.4 | 46.5 | 31.1 | 87.1 | 28 | 25.4 |  |  |  |  |  |  |  |  |  | 
COc1cccc2c(NNc3ccc(Cl)cc3)c3ccc([N+](=O)[O-])cc3nc12 | 61.8 | 33.2 | 36.3 | 21.1 | 22 | 33.4 | 85 | > 100 | 26.3 | 4 |  |  |  |  |  |  |  |  |  | 
N#Cc1c(C#N)c(-c2ccco2)n(/N=C/c2ccco2)c1N | > 100 | 67.5 | > 100 | > 100 | > 100 | > 100 | > 100 | > 100 | > 100 | > 100 |  |  |  |  |  |  |  |  |  | 
CN1CCN(c2nc3c(c(=O)n(C)c(=O)n3C)n2C)CC1 | > 100 | > 100 | > 100 | > 100 | > 100 | > 100 | > 100 | > 100 | > 100 | > 100 |  |  |  |  |  |  |  |  |  | 
CC(=O)CC(=O)Nn1c(-c2cccs2)nc2ccc(I)cc2c1=O | > 100 | > 100 | > 78.5 | > 87.5 | > 93.2 | > 100 | > 100 | > 100 | > 85 | > 100 |  |  |  |  |  |  |  |  |  | 
O=C1N[C@@H](c2c[nH]c3ccc(Br)cc23)C(=O)N[C@H]1c1c[nH]c2ccc(Br)cc12 | 36.4 | 49.2 | 28.4 | 24 | 28.8 | 28.2 | 20 | 35.2 | 23.2 | 19.3 |  |  |  |  |  |  |  |  |  | 
COC(=O)c1ccc2[nH]c3c(c2c1)CC(=O)Nc1ccccc1-3 | > 100 | > 100 | > 100 | > 100 | > 100 |  | > 100 | > 100 | > 100 | 25 |  |  |  |  |  |  |  |  |  | 
O=C1c2c(ccc3c2CCCC3)CC12Cc1ccccc1C2 | > 100 | > 100 | 48.9 | 56.7 | 34.9 | > 96.2 | 65.2 | > 76.6 | > 100 | > 27.6 |  |  |  |  |  |  |  |  |  | 
Cc1ccc(-c2cn3c(nc4ccccc43)c(C)n2)cc1 | > 30.1 | > 100 | > 100 | > 100 | > 67.8 | > 100 | > 100 | > 100 | > 81.3 | > 100 |  |  |  |  |  |  |  |  |  | 
O=C(C(Cl)=C(Nc1ccccc1)Nc1ccccc1)C(Cl)Cl | 75.9 | 71.3 | 79.3 | 37.4 | 45 | 93.2 | 97.7 | 62.5 | 54.1 | 49.4 |  |  |  |  |  |  |  |  |  | 
C=C(Cl)C(Cl)(CBr)CCC(Cl)C(C)C (stereo not given) | 0.411 | 14.2 | 3.45 | 15.8 | 28.4 | 50 | 10.3 | 2.57 | 14 | > 54.7 |  |  |  |  |  |  |  |  |  | 
O=C(O)CCCCCNC(=O)CCC(CN(CC(=O)OCc1ccccc1)CC(=O)OCc1ccccc1)N(CC(=O)OCc1ccccc1)CC(=O)OCc1ccccc1 (stereo not given) | 36.9 | 32.9 | 33.9 | 42.1 | 39.5 | 35 | 33.7 | 36.2 | 30.4 | 42 |  |  |  |  |  |  |  |  |  | 

Compound | TGI (T-47D breast) [µM] | TGI (SNB-19 CNS) [µM] | TGI (OVCAR-3 ovarian) [µM] | TGI (NCI-H522 lung) [µM] | TGI (MALME-3M melanoma) [µM] | TGI (NCI-H23 lung) [µM] | TGI (COLO 205 colon) [µM] | TGI (MCF7 breast) [µM] | TGI (UACC-62 melanoma) [µM] | TGI (SR leukemia) [µM] | GI50 (T-47D breast) [µM] | GI50 (SNB-19 CNS) [µM] | GI50 (OVCAR-3 ovarian) [µM] | GI50 (NCI-H522 lung) [µM] | GI50 (MALME-3M melanoma) [µM] | GI50 (NCI-H23 lung) [µM] | GI50 (COLO 205 colon) [µM] | GI50 (MCF7 breast) [µM] | GI50 (UACC-62 melanoma) [µM] | GI50 (SR leukemia) [µM]
CC(C)NC(=O)OCc1c(COC(=O)NC(C)C)c(-c2ccc[n+](COC(=O)C3CCCCC3)c2)n2c1CCC2 | > 100 | > 100 | > 100 | 58 | > 100 | > 100 | > 100 | > 100 | 87.4 | > 100 |  |  |  |  |  |  |  |  |  | 
O=C1CSC(c2ccc(Cl)cc2)N1c1ccc(-n2c(-c3ccccc3)nc3ccccc3c2=O)cc1 (stereo not given) | > 100 | > 100 | > 100 | > 100 | > 100 | > 100 | > 100 | > 100 | > 100 | > 100 |  |  |  |  |  |  |  |  |  | 
CCC1(CC)C(=O)N(C(=O)c2ccc(Cl)cc2)N(C(=O)c2ccccc2Cl)C1=O | > 100 | > 100 | > 100 | 48.1 | > 100 | > 100 | > 100 | > 100 | > 100 | > 100 |  |  |  |  |  |  |  |  |  | 
O=C1NC(N2CCCC(CO)C2)=N/C1=C\c1ccc(O)cc1 (stereo not given) | > 100 | > 100 | > 100 | > 100 | > 100 | > 100 | > 100 | > 100 | > 100 | > 100 |  |  |  |  |  |  |  |  |  | 
C[N+]12C=CC=C1C(N1CCCC1)c1sc(-c3ccc(Cl)cc3)cc12 (stereo not given) | 35.4 | 26.8 | 26.5 | 27 | 31.1 |  | 31.6 | 28.3 | 28.4 | 50.1 |  |  |  |  |  |  |  |  |  | 
COc1cc(OC)cc(N(C)Cc2cnc3nc(N)nc(N)c3c2C)c1 | > 100 | > 100 | > 31.6 | 43.6 | > 100 | > 100 | > 100 | > 100 | > 100 | > 100 |  |  |  |  |  |  |  |  |  | 
O=C(C(=O)n1ccc2ccccc21)c1c[nH]c2ccccc12 | > 10 | > 10 | > 10 | > 10 | > 10 | > 10 | > 10 | > 10 | > 10 | > 10 |  |  |  |  |  |  |  |  |  | 
Clc1ccc(CCN2CCN(CCCc3ccccc3)CC2)cc1Cl | 35.1 | 30.8 | 30.9 | 36.7 | 33.8 | 31.6 | 31.6 | 33.8 | 31.5 | 78.8 |  |  |  |  |  |  |  |  |  | 
C[C@H]1C(=O)C2=C[C@H]1CCC(=O)[C@]1(C)CCCC(C)(C)[C@H]1C[C@H]2O | 32.9 | > 100 | 84.9 | 20.6 | 43.5 | 57.7 | 28.4 | 27.3 | > 100 | 61.3 |  |  |  |  |  |  |  |  |  | 
O=C(CSCC(=O)N/N=C\c1cc(Br)cc(Br)c1O)N/N=C\c1cc(Br)cc(Br)c1O | > 100 | > 100 | 93.8 | 50.9 | 42.5 | > 100 | > 100 | > 100 | 39.7 | 42 |  |  |  |  |  |  |  |  |  | 
COc1ccc(N=Nc2ccc3oc(=O)c(C(=O)Nc4ccc(OC)cc4)cc3c2)cc1 | 29.8 | 83.1 | 46.6 | 75.6 | 52.7 | 43.8 | 43.7 | 38 |  | 87.5 |  |  |  |  |  |  |  |  |  | 
CC(C)(C)C(=O)C(C#N)C(=O)C(C)(C)C | > 100 | > 100 | > 100 | > 100 | > 100 | > 100 | > 100 | > 100 |  | 50 |  |  |  |  |  |  |  |  |  | 
CN(C)CCCNc1ccc2nnn3c4ccc([N+](=O)[O-])cc4c(=O)c1c23 | 27.9 | 15.3 | 11 | 17 | 14.5 | 8.61 | 5.35 | 8.08 | 14.4 | 6.03 |  |  |  |  |  |  |  |  |  | 
CCOc1c(OC)cc(CNNc2nccs2)cc1OC | > 100 | > 100 | > 100 | > 100 | > 100 | > 100 | > 100 | > 100 |  | > 100 |  |  |  |  |  |  |  |  |  | 
COc1cccc(C(=O)C(O)c2cccc(OC)c2OC)c1OC (stereo not given) | > 100 | > 100 | > 100 | > 100 | > 100 | > 100 | > 100 | > 100 | > 100 | > 100 |  |  |  |  |  |  |  |  |  | 
CC(C)(C)OC(=O)N1CC(COS(C)(=O)=O)c2ccc(O)cc21 (stereo not given) | 11.1 | 8.95 | 7.25 | 2.39 | 2.86 | 3.05 | 3.31 | 7.49 | 3.2 | 5.31 |  |  |  |  |  |  |  |  |  | 
